The record followed here is patent publication US20040198756A1, “Medicaments” (priority 2001, published 2004).

Structures can show the parent of a compound that is named as a salt. A value given as a limit tells only on which side of the number the result lay.

One test in a line: MIC of test compounds against various organisms. Type of test: cell-based. The note with it: bound holds for all 11 organisms of the panel; read-out: MIC versus all these organisms. The method, then: The MIC (jig/ml) of test compounds against various organisms was determined:
S. aureus Oxford, S. aureus WCUH29, S. pneumoniae 1629, S. pneumoniae N1387, S. pneumoniae ERY 2, E. faecalis I, E. faecalis 7, H. influenzae Ql, H. influenzae NEMC1, M. catarrhalis 1502, E. coli 7623.
For orientation: MIC means the lowest concentration found to suppress growth. As for `COc1ccc2nccc(NC(=O)[C@@]3(O)CCN(CCc4ccc5c(c4)NC(=O)CS5)C[C@@H]3O)c2n1` (racemic) [Example 18, (3S/R,4R/S)-3,4-Dihydroxy-1-[2-(3-oxo-3,4-dihydro-2H-benzo[1,4]thiazin-6-yl)-ethyl]-piperidine-4-carboxylic acid (6-methoxy-[1,5]naphthyridin-4-yl)amide dihydrochloride], the MIC is not above 4 µg/mL. As to `COc1ccc2nccc(NC(=O)C3(O)CCN(C[C@H](O)c4ccc5c(n4)NC(=O)CS5)CC3)c2n1` (racemic) [Example 22, 4-Hydroxy-1-[2-(RS)-2-hydroxy-2-(3-oxo-3,4-dihydro-2H-pyrido[3,2-b][1,4]thiazin-6-yl)-ethyl]-piperidine-4-carboxylic acid (6-methoxy-[1,5]naphthyridin-4-yl)amide dihydrochloride], the MIC is not above 4 µg/mL. Same read-out and setting: in the case of `COc1ccc2nccc(NC(=O)C3(OC)CCN(C[C@H](O)c4ccc5c(n4)NC(=O)CS5)CC3)c2n1` (racemic) [Example 23, 4-Methoxy-1-[2-(RS)-2-hydroxy-2-(3-oxo-3,4-dihydro-2H-pyrido[3,2-b][1,4]-thiazin-6-yl)-ethyl]-piperidine-4-carboxylic acid (6-methoxy-[1,5]naphthyridinyl)amide dihydrochloride] it was not above 4 µg/mL. On to `COc1ccc2nccc(CCC3(O)CCN(C[C@H](O)c4ccc5c(c4)NC(=O)CS5)CC3)c2n1` (racemic) [Example 27, 6-((R,S)-1-Hydroxy-2-(4-hydroxy-4-[2-(6-methoxy-[1,5]naphthyridin-4-yl)ethyl]piperidin-1yl}ethyl)-4H-benzo[1,4]thiazin-3-one], for which the MIC is not above 4 µg/mL.

Staying with this test, now noted: read-out: MIC versus all these organisms.
With `COc1ccc2nccc(NC(=O)C3(O)CCN(CC(O)c4ccc5c(c4)OCCO5)CC3)c2n1` (racemic) [Example 13, 1-[2-(2,3-Dihydro-benzo[1,4]dioxin-6-yl)-2-(R,S)-hydroxy-ethyl]-4-hydroxy-piperidine-4-carboxylic acid (6-methoxy-[1,5]naphthyridin-4-yl)-amide dihydrochloride], the MIC was not above 16 µg/mL. For the compound `COc1ccc2nccc(NC(=O)C3(C)CCN(CCc4ccc5c(c4)NC(=O)CS5)CC3)c2n1` [Example 1, 4-Methyl-1-[2-(3-oxo-3,4-dihydro-2H-benzo[1,4]thiazin-6-yl)-ethyl]-piperidine-4-carboxylic acid (6-methoxy-[1,5]naphthyridin-4-yl)amide oxalate], the MIC is not above 4 µg/mL. As for `COc1ccc2nccc(NC(=O)C3(N)CCN(CCc4ccc5c(c4)NC(=O)CS5)CC3)c2n1` [Example 2, 4-Amino-1-[2-(3-oxo-3,4-dihydro-2H-benzo[1,4]thiazin-6-yl)-ethyl]-piperidine-4-carboxylic acid (6-methoxy-[1,5]naphthyridin-4-yl)amide dioxalate], the MIC was not above 4 µg/mL. The same measure, in the same setting: in the case of `COc1ccc2nccc(NC(=O)C3(O)CCN(CCc4ccc5c(c4)OCO5)CC3)c2n1` [Example 3, 1-(2-Benzo[1,3]dioxol-5-yl-ethyl)-4-hydroxy-piperidine-4-carboxylic acid (6-methoxy-[1,5]naphthyridin-4yl)amide oxalate] it was not above 16 µg/mL. The same measure, in the same setting: in the case of `COc1ccc2nccc(NC(=O)C3(C)CCN(CCc4ccc5c(c4)OCO5)CC3)c2n1` [Example 4, 1-(2-Benzo[1,3]dioxol-5-yl-ethyl)4-methylpiperidine-4-carboxylic acid (6-methoxy-[1,5]naphthyridin-4-yl)-amide oxalate] it was not above 16 µg/mL; in that of `COc1ccc2nccc(NC(=O)C3(O)CCN(CCc4ccc5c(c4)NC(=O)CS5)CC3)c2n1` [Example 5, 4-Hydroxy-1-[2-(3-oxo-3,4-dihydro-2H-benzo[1,4]thiazin-6-yl)-ethyl]-piperidine-4-carboxylic acid (6-methoxy-[1,5]naphthyridin-4-yl)-amide oxalate], not above 64 µg/mL.
